Measurements from patent publication US10851097B2, “4,5,6,7-tetrahydro-1H-imidazo[4,5-c]pyridine and 1,4,5,6,7,8-hexahydroimidazo[4,5-d]azepine derivatives as janus kinase inhibitors” (Topivert Pharma Limited, priority 2015, dated 2020).
Converted amounts (≈) assume the structure as drawn. Like-named read-outs stand apart in the source and are kept apart here.

How the values were obtained:
[1] = Solubility in fasted-state simulated colonic fluid (FaSSCoF) at pH 6.5; format: physicochemical; conditions: 25 °C, pH 6.5, fassgf or other biorelevant, thermodynamic from solid, pH 6.5, 25° C.
Method: The solubilities of compounds of the invention in FaSSCoF at pH 6.5 are determined using a modification of a previously-reported procedure (Vertzoni, M., et al. Pharm. Res. 2010, 27, 2187-2196). In place of the bile salt extract employed in the original procedure (which extract is no longer available), the modified procedure uses a mixture of sodium taurochlorate (0.15 g), glycocholic acid (0.15 g), ursodeoxycholic acid (0.05 g), cholic acid (0.05 g), and glycodeoxycholic acid (0.05 g). These five bile acids are ground together with a mortar and pestle to produce a fine white powder that is incorporated into the FaSSCoF, as outlined below.
Tris(hydroxymethyl)aminomethane (Tris; 0.275 g) and maleic acid (0.44 g) are dissolved in water (35 mL) to give a solution whose pH is adjusted to 6.5 by treatment with 0.5M NaOH (ca. 12 mL). The solution is then made up to 50 mL with water. A portion of this Tris/maleate buffer solution (ca. 25 mL) is added to a 0.5 L round-bottomed flask, before being treated with 0.00565 g of the bile acid mixture described above. Solutions of phosphatidylcholine (0.0111 g) in DCM (0.15 mL) and palmitic acid (0.0013 g) in DCM (0.15 mL) are added, then the organic solvent is evaporated off under reduced pressure at 40° C. until a clear solution, with no perceptible DCM odour, is achieved. The volume of the evaporated solution is adjusted to 50 mL by addition of the remainder of Tris/maleate buffer, then BSA (0.115 g) is added, before being dissolved by gentle agitation.
Test compounds are suspended in the pH 6.5 FaSSCoF medium to give a maximum final concentration of 2-10 mg/mL. The suspensions are equilibrated at 25° C. for 24 h, before being filtered through a glass fibre C filter. The filtrates are then diluted as appropriate for injection and quantification by HPLC with reference to a standard. Different volumes of the standard, diluted and undiluted sample solutions are injected and the solubilities are calculated using the peak areas determined by integration of the peak found at the same retention time as the principal peak in the standard injection.

Jurkat cells = experiment: Cell cytotoxicity assay in Jurkat cells (assay (c)); format: cell-based, human; conditions: 24 h, propidium iodide, normalised to DMSO control
Method: (c) Cell Cytotoxicity Assay
1×10^5 Jurkat cells (immortalised human T lymphocytes) are added to the appropriate number of wells of a 96 well plate in 100 μL of media (RPMI supplemented with 10% foetal bovine serum). 1 μL of DMSO control (final concentration 1.0% v/v) or test compound (final concentration 20, 5 or 1 μg/mL) is added to the wells and incubated at 37° C., 5% CO2. After 24 hours, the plate is centrifuged at 1200 rpm for 3 minutes and the supernatant discarded. Cells are then resuspended in 150 μL (final concentration 7.5 μg/mL) of propidium iodide (PI) in PBS and incubated at 37° C., 5% CO2 for 15 minutes. After 15 minutes, cells are analysed by flow cytometry (BD accuri) using the FL3 window. The % viability is calculated as the % of cells that are PI negative in the test wells normalised to the DMSO control.

[2] = test system: CD3/IL2 stimulated PBMC cells; experiment: IFNγ release from CD3/IL2 stimulated PBMC cells (assay (a)); format: cell-based; conditions: Homo sapiens, CD3/IL2 stimulation, 48 h, ELISA
Method: (a) IFNγ Release from CD3/IL2 Stimulated PBMC Cells
PBMCs from healthy subjects are separated from whole blood using a density gradient (Lymphoprep, Axis-Shield Healthcare). Cells are added to a 96 well plate, and compound at the desired concentration added 2 hours prior to stimulation with a mixture of monoclonal antibody to CD3 (1 μg/ml, eBioscience) and human recombinant IL2 (10 ng/ml, Peprotech). After 48 hours incubation under normal tissue culture conditions, supernatants are collected and IFNγ release determined by Sandwich ELISA (Duo-set, R&D System). The IC50 is determined from the dose response curve.

[3] = Systemic pharmacokinetics and total colon tissue distribution after single oral administration in mice; format: in vivo, male C57BL/6 mice; conditions: oral 10 mg/kg
Method: Studies were conducted by Sai Life Sciences (Hinjewadi, Pune, India) to investigate the systemic pharmacokinetics and total colon tissue distribution of compounds of the invention following a single oral administration in male C57BL/6 mice.
A group of twenty four male mice were administered with a solution of test compound formulated at a dose of 10 mg/10 mL/kg in aqueous hydroxypropyl-β-cyclodextrin (20% w/v in water). Blood samples (approximately 60 μL) were collected from retro-orbital plexus of each mouse under light isoflurane anaesthesia such that the samples were obtained at 0.5, 1, 2, 4, 6, 8, 12 and 24 hr. The blood samples were collected from a set of three mice at each time point in a labeled micro centrifuge tube containing K2EDTA as anticoagulant. Plasma samples were separated by centrifugation at 4000 rpm for 10 min and stored below −70° C. until bioanalysis. After collection of blood sample, animals were humanely euthanized by carbon dioxide asphyxiation to collect total colon tissues. The colons were flushed with cold PBS (pH7.4) to remove contents. The total colon tissues were homogenized with cold PBS (pH7.4) of twice the weight of colon tissue and stored below −70° C. Total volume was three times the total colon tissue weights. All samples were processed for analysis by protein precipitation using acetonitrile and analyzed with a fit-for-purpose LC-MS/MS method. Pharmacokinetic parameters were calculated using the non-compartmental analysis tool of Phoenix WinNonlin® (Version 6.3).

- solubility thermodynamic at 24 h ([1]; Run 1, read-out: pH 6.5 FaSSCoF Solubility Run 1): 6 µg/mL (≈ 10.6 µM)
- solubility thermodynamic at 24 h ([1]; Run 2, read-out: pH 6.5 FaSSCoF Solubility Run 2): 6 µg/mL (≈ 10.6 µM)
- AUC(0-t) ([3]; male, C57BL/6, mouse, plasma, read-out: AUC0-24 h P (plasma)): 368 ng·h/mL
- Cmax ([3]; male, C57BL/6, mouse, plasma, read-out: Cmax P (plasma)): 114 ng/mL
- Cmax ([3]; male, C57BL/6, mouse, total colon tissue, total colon, read-out: Cmax C (total colon)): 3230 ng/g
- AUC0-24 h C (total colon) ([3]; total colon): 43,739 h · ng/g
Compound: CCc1cc(O)c(F)cc1-c1ccc2c(-c3nc4c([nH]3)CCN(C(=O)c3cnc(N5CCCCC5)cn3)C4)n[nH]c2c1 [Reference Compound, reference compound]
- % viability at 1 μg/mL (Jurkat cells): 49%
- IC50 [2]: 81.3 nM
